Earlier results on one compound are cited in patent US5500226A, “Pharmaceutical composition having analgesic activity” (Zambon Group S.p.A., priority 1993, dated 1996).

The conditions of the data set: in words; vs Ibuprofen.

For `CC(C)Cc1ccc([C@H](C)C(=O)O)cc1` [(S)-Ibuprofen, S(+)-2-(4-isobutylphenyl)propionic acid], the Analgesic effect entry was “more rapid, and consequently a more lasting, analgesic effect than Ibuprofen”.
